Data from US20230310428A1, “EGFR INHIBITOR AND PREPARATION METHOD AND USE THEREOF” (HONGYUN BIOTECH CO., LTD., priority 2020, published 2023).

Tests used:
Experiment in all cases: Growth inhibitory activity of compounds on BaF3 cell lines stably transfected with kinase (MTS, 48 h)
Assay type in all cases: cell-based
[1] = biological target: T1, various mutants of kinase EGFR (BaF3 cell lines stably transfected with kinase) (Homo sapiens, UniProt P00533, L858R); details: BaF3 cell line stably transfected with EGFR L858R, read-out: L858R growth inhibitory activity IC50
T1 construct: expressed in transfected cells; host or cells: BaF3
Summary of the method: (§1)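 First, cells were seeded and treated with an eight-point threefold dilution series starting at 10 µM (0.1% DMSO). After 48 h at 37 °C, MTS reagent was added for 1-4 h before absorbance at 490 nm. Inhibition rates gave the IC50.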

[2] = biological target: T2, various mutants of kinase EGFR (BaF3 cell lines stably transfected with kinase) (Homo sapiens, UniProt P00533, C797S/L858R/T790M); details: BaF3 cell line stably transfected with EGFR L858R/T790M/C797S, read-out: L858R/T790M/ C797S growth inhibitory activity IC50
T2 construct: expressed in transfected cells; host or cells: BaF3
T2 sequence (P00533 25-1210 T790M/C797S/L858R): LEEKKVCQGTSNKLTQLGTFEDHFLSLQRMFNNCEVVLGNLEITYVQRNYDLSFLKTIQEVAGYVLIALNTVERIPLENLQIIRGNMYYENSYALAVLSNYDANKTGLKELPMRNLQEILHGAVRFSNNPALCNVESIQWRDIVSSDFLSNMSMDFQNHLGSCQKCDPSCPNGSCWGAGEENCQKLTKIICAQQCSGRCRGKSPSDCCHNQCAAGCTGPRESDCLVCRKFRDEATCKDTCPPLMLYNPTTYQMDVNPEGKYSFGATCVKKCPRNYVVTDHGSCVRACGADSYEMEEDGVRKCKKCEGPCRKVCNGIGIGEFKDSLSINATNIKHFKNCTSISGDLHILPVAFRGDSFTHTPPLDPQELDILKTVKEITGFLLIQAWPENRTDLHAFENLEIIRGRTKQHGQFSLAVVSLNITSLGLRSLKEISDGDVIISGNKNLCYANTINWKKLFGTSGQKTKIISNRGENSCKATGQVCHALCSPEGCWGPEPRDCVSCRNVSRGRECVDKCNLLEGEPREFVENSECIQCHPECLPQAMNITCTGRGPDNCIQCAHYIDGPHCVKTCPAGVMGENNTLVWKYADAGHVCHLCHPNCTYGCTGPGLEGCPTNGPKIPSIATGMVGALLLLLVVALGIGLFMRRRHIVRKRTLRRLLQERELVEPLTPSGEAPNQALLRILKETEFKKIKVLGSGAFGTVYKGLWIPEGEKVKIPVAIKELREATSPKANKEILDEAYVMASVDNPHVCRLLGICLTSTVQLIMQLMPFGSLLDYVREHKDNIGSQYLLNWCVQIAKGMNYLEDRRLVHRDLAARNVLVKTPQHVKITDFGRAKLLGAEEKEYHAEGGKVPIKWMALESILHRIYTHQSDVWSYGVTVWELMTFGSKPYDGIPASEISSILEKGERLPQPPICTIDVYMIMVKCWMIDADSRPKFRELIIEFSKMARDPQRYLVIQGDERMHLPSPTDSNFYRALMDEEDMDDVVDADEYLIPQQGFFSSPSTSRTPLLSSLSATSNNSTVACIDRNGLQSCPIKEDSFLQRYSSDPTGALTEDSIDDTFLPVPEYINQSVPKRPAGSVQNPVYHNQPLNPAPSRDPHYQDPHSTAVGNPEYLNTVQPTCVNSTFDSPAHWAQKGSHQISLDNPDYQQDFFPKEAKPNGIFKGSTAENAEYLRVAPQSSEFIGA
Summary of the method: as §1

[3] = biological target: T3, various mutants of kinase EGFR (BaF3 cell lines stably transfected with kinase) (Homo sapiens, UniProt P00533, T790M, form not given); details: BaF3 cell line stably transfected with EGFR Δ19Del/T790M, read-out: Δ19Del/ T790M growth inhibitory activity IC50
T3 construct: other: BaF3 cells stably transfected with EGFR Δ19Del/T790M; MTS, 48 h; other: BaF3 cell line stably transfected with EGFR Δ19Del/T790M; MTS, 48
T3 sequence (P00533 with tags, fused parts or gaps DEL746-750/T790M, form open): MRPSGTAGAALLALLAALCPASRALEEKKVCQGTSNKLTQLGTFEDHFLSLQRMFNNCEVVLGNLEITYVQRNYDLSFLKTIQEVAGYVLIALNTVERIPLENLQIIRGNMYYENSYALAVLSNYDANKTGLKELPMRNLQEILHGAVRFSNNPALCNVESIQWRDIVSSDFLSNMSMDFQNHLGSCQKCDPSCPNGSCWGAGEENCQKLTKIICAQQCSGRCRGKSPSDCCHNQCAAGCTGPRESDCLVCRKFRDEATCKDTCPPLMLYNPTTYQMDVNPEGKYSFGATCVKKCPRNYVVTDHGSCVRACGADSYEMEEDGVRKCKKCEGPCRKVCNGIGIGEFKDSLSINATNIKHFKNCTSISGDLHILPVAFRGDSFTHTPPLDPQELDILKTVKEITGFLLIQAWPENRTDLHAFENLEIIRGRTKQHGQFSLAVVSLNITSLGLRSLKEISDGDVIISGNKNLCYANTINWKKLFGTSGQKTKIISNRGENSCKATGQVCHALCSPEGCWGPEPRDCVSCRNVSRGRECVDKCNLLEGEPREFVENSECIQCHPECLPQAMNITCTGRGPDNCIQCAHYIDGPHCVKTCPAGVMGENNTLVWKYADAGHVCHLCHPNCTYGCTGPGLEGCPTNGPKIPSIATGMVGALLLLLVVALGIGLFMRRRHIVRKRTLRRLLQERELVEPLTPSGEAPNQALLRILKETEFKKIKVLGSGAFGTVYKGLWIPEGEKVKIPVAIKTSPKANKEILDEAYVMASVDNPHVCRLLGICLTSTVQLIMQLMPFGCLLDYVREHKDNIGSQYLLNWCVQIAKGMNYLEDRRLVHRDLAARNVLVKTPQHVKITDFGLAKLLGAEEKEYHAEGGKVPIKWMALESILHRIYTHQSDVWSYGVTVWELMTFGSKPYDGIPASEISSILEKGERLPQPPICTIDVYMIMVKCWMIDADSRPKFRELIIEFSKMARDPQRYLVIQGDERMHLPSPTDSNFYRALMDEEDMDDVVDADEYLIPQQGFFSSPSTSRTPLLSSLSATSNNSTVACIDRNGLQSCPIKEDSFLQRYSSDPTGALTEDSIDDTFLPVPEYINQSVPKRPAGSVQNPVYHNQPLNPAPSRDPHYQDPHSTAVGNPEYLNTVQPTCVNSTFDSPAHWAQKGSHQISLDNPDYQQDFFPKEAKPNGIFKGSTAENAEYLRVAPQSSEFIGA
Summary of the method: as §1

[4] = biological target: T4, various mutants of kinase EGFR (BaF3 cell lines stably transfected with kinase) (Homo sapiens, UniProt P00533, L858R/T790M); details: BaF3 cell line stably transfected with EGFR L858R/T790M, read-out: L858R/ T790M growth inhibitory activity IC50
T4 construct: expressed in transfected cells; host or cells: BaF3
T4 sequence (P00533 25-1210 T790M/L858R): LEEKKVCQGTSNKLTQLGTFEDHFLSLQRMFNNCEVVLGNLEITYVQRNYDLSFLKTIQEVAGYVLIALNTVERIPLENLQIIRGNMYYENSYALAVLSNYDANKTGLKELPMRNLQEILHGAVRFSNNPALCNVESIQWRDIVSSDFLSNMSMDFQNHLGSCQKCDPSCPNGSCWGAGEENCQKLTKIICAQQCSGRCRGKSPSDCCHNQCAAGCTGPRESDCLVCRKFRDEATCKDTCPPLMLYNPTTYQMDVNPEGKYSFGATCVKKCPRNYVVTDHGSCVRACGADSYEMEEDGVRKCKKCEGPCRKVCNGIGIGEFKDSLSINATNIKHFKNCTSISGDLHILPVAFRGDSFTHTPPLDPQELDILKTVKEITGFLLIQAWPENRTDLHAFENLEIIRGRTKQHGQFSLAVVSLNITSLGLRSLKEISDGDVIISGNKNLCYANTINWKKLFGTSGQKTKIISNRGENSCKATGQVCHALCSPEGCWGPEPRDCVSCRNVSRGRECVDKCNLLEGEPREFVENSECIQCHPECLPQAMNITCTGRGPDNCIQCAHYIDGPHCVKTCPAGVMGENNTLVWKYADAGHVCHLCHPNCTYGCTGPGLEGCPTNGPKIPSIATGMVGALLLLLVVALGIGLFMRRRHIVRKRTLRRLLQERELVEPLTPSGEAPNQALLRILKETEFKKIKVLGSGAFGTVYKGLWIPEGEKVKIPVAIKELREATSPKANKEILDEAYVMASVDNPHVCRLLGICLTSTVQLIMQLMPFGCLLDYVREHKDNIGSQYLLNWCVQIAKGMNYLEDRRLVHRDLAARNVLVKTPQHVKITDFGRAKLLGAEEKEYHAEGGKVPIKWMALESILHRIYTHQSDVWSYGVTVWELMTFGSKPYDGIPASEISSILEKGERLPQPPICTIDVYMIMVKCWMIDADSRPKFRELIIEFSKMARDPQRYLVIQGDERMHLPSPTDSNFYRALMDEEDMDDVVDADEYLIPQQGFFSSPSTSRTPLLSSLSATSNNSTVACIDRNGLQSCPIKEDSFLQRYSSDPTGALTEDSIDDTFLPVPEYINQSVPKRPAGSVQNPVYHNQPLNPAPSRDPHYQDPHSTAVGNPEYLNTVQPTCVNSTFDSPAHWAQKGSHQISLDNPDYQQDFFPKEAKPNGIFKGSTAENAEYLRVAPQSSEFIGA
Summary of the method: as §1

[5] = biological target: T5, various mutants of kinase EGFR (BaF3 cell lines stably transfected with kinase) (Homo sapiens, UniProt P00533, T790M/C797S, form not given); details: BaF3 cell line stably transfected with EGFR Δ19Del/T790M/C797S, read-out: Δ19Del/T790M/ C797S growth inhibitory activity IC50
T5 construct: other: BaF3 cells stably transfected with EGFR Δ19Del/T790M/C797S; MTS, 48; other: BaF3 cell line stably transfected with EGFR Δ19Del/T790M/C7
Summary of the method: as §1

[6] = biological target: T6, various mutants of kinase EGFR (BaF3 cell lines stably transfected with kinase) (Homo sapiens, UniProt P00533); details: BaF3 cell line stably transfected with EGFR Δ19Del, read-out: Δ19Del growth inhibitory activity IC50
T6 construct: other: BaF3 cells stably transfected with EGFR Δ19Del; MTS, 48 h; other: BaF3 cell line stably transfected with EGFR Δ19Del
T6 sequence (P00533 with tags, fused parts or gaps DEL746-750): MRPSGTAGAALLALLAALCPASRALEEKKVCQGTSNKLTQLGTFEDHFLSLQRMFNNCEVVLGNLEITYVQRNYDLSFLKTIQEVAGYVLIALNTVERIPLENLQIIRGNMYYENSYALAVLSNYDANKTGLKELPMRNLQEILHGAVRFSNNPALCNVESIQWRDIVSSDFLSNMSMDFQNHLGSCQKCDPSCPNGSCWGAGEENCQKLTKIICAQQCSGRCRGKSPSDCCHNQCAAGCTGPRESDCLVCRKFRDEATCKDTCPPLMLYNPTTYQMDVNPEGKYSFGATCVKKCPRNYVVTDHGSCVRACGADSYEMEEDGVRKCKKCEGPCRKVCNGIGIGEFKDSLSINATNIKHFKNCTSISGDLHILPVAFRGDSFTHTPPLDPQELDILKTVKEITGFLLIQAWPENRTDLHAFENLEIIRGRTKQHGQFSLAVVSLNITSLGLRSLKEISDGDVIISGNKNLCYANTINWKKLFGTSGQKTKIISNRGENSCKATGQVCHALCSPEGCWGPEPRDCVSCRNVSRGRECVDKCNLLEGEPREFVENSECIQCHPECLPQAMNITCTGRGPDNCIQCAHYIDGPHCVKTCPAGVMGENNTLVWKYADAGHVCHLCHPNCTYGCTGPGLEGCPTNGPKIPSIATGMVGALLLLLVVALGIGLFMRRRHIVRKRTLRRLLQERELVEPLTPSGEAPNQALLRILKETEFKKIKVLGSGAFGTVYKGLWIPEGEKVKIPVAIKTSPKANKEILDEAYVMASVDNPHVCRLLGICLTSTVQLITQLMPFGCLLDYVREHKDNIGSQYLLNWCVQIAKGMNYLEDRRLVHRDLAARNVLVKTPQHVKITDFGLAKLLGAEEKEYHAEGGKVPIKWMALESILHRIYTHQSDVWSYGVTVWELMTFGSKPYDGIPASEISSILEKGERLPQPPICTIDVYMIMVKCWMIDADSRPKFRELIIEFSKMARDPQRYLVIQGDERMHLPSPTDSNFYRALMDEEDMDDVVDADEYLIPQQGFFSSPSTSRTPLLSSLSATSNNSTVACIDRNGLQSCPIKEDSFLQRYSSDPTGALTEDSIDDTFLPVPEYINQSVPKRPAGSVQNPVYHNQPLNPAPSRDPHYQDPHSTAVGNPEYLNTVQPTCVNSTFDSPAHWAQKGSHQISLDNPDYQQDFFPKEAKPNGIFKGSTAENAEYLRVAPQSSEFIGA
Summary of the method: as §1

IC50 [1] [nM]	IC50 [2] [nM]	IC50 [3] [nM]	IC50 [4] [nM]	IC50 [5] [nM]	IC50 [6] [nM]	SMILES
500 to 2500	500 to 2500	500 to 2500	500 to 2500	500 to 2500	500 to 2500	COc1nc(N2CCC(N3CCN(C)CC3)CC2)c(C)cc1Nc1nc(Nc2ccc3nccnc3c2N(C)S(C)(=O)=O)c2[nH]ccc2n1 [II-1-28]
500 to 2500	500 to 2500	500 to 2500	500 to 2500	50 to 500	500 to 2500	CN1CCN(C2CCN(c3ccc(Nc4nc(Nc5ccc6nccnc6c5N(C)S(C)(=O)=O)c5[nH]ccc5n4)c(OC(F)(F)F)c3)CC2)CC1 [II-1-29]
500 to 2500	500 to 2500	500 to 2500	500 to 2500	50 to 500	500 to 2500	COc1cc(N2CCC(N(C)C)CC2)c(C)cc1Nc1nc(Nc2ccc3nccnc3c2N(C)S(C)(=O)=O)c2[nH]ccc2n1 [II-1-31]
500 to 2500	50 to 500	500 to 2500	50 to 500	50 to 500	500 to 2500	CCc1cc(Nc2nc(Nc3ccc4nccnc4c3N(C)S(C)(=O)=O)c3[nH]ccc3n2)c(OC)cc1N1CCC(N(C)C)CC1 [II-1-32]
500 to 2500	500 to 2500	500 to 2500	500 to 2500	500 to 2500	500 to 2500	COc1cc(N2CCN(C)CC2)c(C)cc1Nc1nc(Nc2ccc3nccnc3c2N(C)S(C)(=O)=O)c2[nH]ccc2n1 [II-1-33]
500 to 2500	500 to 2500	50 to 500	500 to 2500	50 to 500	500 to 2500	CCc1cc(Nc2nc(Nc3ccc4nccnc4c3N(C)S(C)(=O)=O)c3[nH]ccc3n2)c(OC)cc1N1CCN(C)CC1 [II-1-34]
500 to 2500	500 to 2500	500 to 2500	500 to 2500	500 to 2500	500 to 2500	COc1cc(N2CCC(N(C)C)C2)c(C)cc1Nc1nc(Nc2ccc3nccnc3c2N(C)S(C)(=O)=O)c2[nH]ccc2n1 (stereo not drawn) [II-1-35]
500 to 2500	500 to 2500	500 to 2500	500 to 2500	500 to 2500	500 to 2500	CCc1cc(Nc2nc(Nc3ccc4nccnc4c3N(C)S(C)(=O)=O)c3[nH]ccc3n2)c(OC)cc1N1CCC(N(C)C)C1 (stereo not drawn) [II-1-36]
500 to 2500	50 to 500	50 to 500	50 to 500	≤ 50	500 to 2500	CCc1cc(Nc2nc(Nc3ccc4nccnc4c3N(C)S(C)(=O)=O)c3occc3n2)c(OC)nc1N1CCC(N2CCN(C)CC2)CC1 [II-1-39]
500 to 2500	500 to 2500	50 to 500	500 to 2500	500 to 2500	500 to 2500	CN1CCN(C2CCN(c3ccc(Nc4nc(Nc5ccc6nccnc6c5N(C)S(C)(=O)=O)c5occc5n4)c(OC(F)(F)F)c3)CC2)CC1 [II-1-40]
50 to 500	50 to 500	500 to 2500	500 to 2500	50 to 500	500 to 2500	CCc1cc(Nc2nc(Nc3ccc4nccnc4c3N(C)S(C)(=O)=O)c3occc3n2)c(OC(F)(F)F)cc1N1CCC(N2CCN(C)CC2)CC1 [II-1-41]
50 to 500	50 to 500	50 to 500	50 to 500	50 to 500	50 to 500	C=Cc1cc(Nc2nc(Nc3ccc4nccnc4c3N(C)S(C)(=O)=O)c3occc3n2)c(OC(F)(F)F)cc1N1CCC(N2CCN(C)CC2)CC1 [II-1-42]
50 to 500	50 to 500	500 to 2500	50 to 500	50 to 500	500 to 2500	COc1cc(N2CCC(N3CCN(C)CC3)CC2)c(CC2CC2)cc1Nc1nc(Nc2ccc3nccnc3c2N(C)S(C)(=O)=O)c2occc2n1 [II-1-43]
500 to 2500	500 to 2500	50 to 500	500 to 2500	500 to 2500	500 to 2500	COc1cc(N2CCC(N3CCN(C)CC3)CC2)c(Cc2ccccc2)cc1Nc1nc(Nc2ccc3nccnc3c2N(C)S(C)(=O)=O)c2occc2n1 [II-1-44]
50 to 500	50 to 500	50 to 500	50 to 500	≤ 50	500 to 2500	COc1ccc(N2CCC(O)CC2)cc1Nc1nc(Nc2ccc3nccnc3c2N(C)S(C)(=O)=O)c2sccc2n1 [II-1-45]
500 to 2500	500 to 2500	500 to 2500	500 to 2500	50 to 500	500 to 2500	COc1cc(N2CCC(N3CCN(C)CC3)CC2)c(C)cc1Nc1nc(Nc2ccc3nccnc3c2N(C)S(C)(=O)=O)c2ccsc2n1 [II-2-1]
500 to 2500	500 to 2500	500 to 2500	500 to 2500	500 to 2500	500 to 2500	CCc1cc(Nc2nc(Nc3ccc4nccnc4c3N(C)S(C)(=O)=O)c3ccsc3n2)c(OC(F)(F)F)cc1N1CCC(N2CCN(C)CC2)CC1 [II-2-4]
50 to 500	≤ 50	≤ 50	≤ 50	≤ 50	50 to 500	COc1cc(N2CCC(N3CCN(C)CC3)CC2)c(C)cc1Nc1nc(Nc2ccc3nccnc3c2N(C)S(C)(=O)=O)c2cc[nH]c2n1 [II-2-5]
50 to 500	≤ 50	≤ 50	≤ 50	≤ 50	50 to 500	CCc1cc(Nc2nc(Nc3ccc4nccnc4c3N(C)S(C)(=O)=O)c3cc[nH]c3n2)c(OC)nc1N1CCC(N2CCN(C)CC2)CC1 [II-2-7]
50 to 500	≤ 50	≤ 50	50 to 500	≤ 50	50 to 500	CCc1cc(Nc2nc(Nc3ccc4nccnc4c3N(C)S(C)(=O)=O)c3cc[nH]c3n2)c(OC(F)(F)F)cc1N1CCC(N2CCN(C)CC2)CC1 [II-2-8]
50 to 500	≤ 50	≤ 50	≤ 50	≤ 50	50 to 500	C=Cc1cc(Nc2nc(Nc3ccc4nccnc4c3N(C)S(C)(=O)=O)c3cc[nH]c3n2)c(OC(F)(F)F)cc1N1CCC(N2CCN(C)CC2)CC1 [II-2-9]
50 to 500	≤ 50	≤ 50	≤ 50	≤ 50	50 to 500	COc1cc(N2CCN(C)CC2)c(C)cc1Nc1nc(Nc2ccc3nccnc3c2N(C)S(C)(=O)=O)c2cc[nH]c2n1 [II-2-12]
500 to 2500	50 to 500	50 to 500	50 to 500	≤ 50	500 to 2500	CCc1cc(Nc2nc(Nc3ccc4nccnc4c3N(C)S(C)(=O)=O)c3cc[nH]c3n2)c(OC)cc1N1CCC(N(C)C)C1 (stereo not drawn) [II-2-17]
500 to 2500	50 to 500	50 to 500	≤ 50	≤ 50	50 to 500	COc1cc(N2CCC(N3CCN(C)CC3)CC2)ccc1Nc1nc(Nc2ccc3nccnc3c2N(C)S(C)(=O)=O)c2cc[nH]c2n1 [II-2-22]
50 to 500	≤ 50	50 to 500	50 to 500	≤ 50	50 to 500	COc1ccc(N2CCC(O)CC2)cc1Nc1nc(Nc2ccc3nccnc3c2N(C)S(C)(=O)=O)c2cc[nH]c2n1 [II-2-23]
